From US8633211B2, “Bicyclic organic compounds suitable for the treatment of inflammatory or allergic conditions” (Novartis AG, priority 2007, dated 2014)

molecular target: T1, human S1P4 (Homo sapiens, UniProt O95977); assay: CHO Gα16 S1P4 intracellular Ca2+ (FLIPR) assay; type: cell-based; conditions: relative antagonism of S1P (EC80) induced Ca2+ change, CHO S1P4/Gα16 cells
T1 construct: expressed in transfected cells; host or cells: CHO (Chinese Hamster Ovary) S1P4/Gα16 cell clone
T1 sequence (O95977 1-384): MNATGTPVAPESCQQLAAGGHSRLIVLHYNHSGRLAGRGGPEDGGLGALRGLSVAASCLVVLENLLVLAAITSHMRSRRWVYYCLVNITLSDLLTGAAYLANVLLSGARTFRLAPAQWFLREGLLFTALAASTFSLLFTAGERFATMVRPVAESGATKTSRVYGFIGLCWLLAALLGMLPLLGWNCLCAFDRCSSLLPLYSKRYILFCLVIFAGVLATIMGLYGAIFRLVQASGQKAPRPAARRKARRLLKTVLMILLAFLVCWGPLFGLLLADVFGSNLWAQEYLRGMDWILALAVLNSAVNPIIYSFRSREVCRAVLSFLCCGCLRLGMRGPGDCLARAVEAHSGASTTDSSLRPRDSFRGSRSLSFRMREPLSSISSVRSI
Protocol: The cells are plated in 384 well black plates (10′000 cells per well). […] After washing, the cells are transferred to the FLIPR. […] This allows the determination of the maximal fluorescence (Fmax).

**Q.** COc1cc(OC)c(NC(=O)Cn2c(=O)n(CC(=O)NCCc3ccccc3)c(=O)c3ccccc32)cc1Cl [Example 1-35, 2-{1-[(5-Chloro-2,4-dimethoxy-phenylcarbamoyl)-methyl]-2,4-dioxo-1,4-dihydro-2H-quinazolin-3-yl}-N-phenethyl-acetamide] was tested. Which IC50 did it give?
**A.** 15 nM

**Q.** For COc1cc(OC)c(NC(=O)Cn2c(=O)n(CC(=O)OC(C)(C)C)c(=O)c3ccccc32)cc1Cl [Example 1-37, {1-[(5-Chloro-2,4-dimethoxy-phenylcarbamoyl)-methyl]-2,4-dioxo-1,4-dihydro-2H-quinazolin-3-yl}-acetic acid tert butyl ester], which IC50 is on record?
**A.** 880 nM

molecular target: T2, human S1P2 receptor (Homo sapiens, UniProt O95136); assay: GTPγS binding assay (SPA), antagonism of S1P at S1P2; type: biochemical; conditions: GTP-γ-S binding assay, membranes of CHO cells expressing human S1P2, 5 nM S1P
T2 construct: expressed in transfected cells; host or cells: CHO cells (membrane preparation)
T2 sequence (O95136 whole entry): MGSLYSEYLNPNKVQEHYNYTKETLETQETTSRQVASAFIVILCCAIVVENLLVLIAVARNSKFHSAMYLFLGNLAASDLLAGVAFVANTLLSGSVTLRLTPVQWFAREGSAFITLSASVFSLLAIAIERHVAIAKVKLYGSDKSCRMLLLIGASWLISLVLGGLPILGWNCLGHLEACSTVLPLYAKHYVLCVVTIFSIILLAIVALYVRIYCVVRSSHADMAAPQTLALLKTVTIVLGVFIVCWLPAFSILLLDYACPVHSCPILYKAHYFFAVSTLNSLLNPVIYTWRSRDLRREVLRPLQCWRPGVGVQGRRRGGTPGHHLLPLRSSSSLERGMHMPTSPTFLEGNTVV
Protocol: The ability of compounds to antagonise S1P activity at S1P2 and S1P3 receptors was examined using GTPγS binding assays.
Membranes preparations were generated from CHO cells expressing either the human S1P2 or S1P3 receptors by homogenisation of the cell suspension and centrifugation at 40 000 g for 30 minutes at 4° C. The supernatant was removed, pellet re-suspended in a 10 mM HEPES, 10 mM EDTA buffer and centrifuged as above. The pellet was re-suspended and stored at −80° C. until use.
Scintillation proximity assay (SPA) technology was used for the GTPγS binding assays. Serial dilutions of test compounds were placed in a 96-well optiplate with 5 nM S1P, 1.25 μg membrane, 0.5 mg SPA beads, 0.3 μM GDP and 100 μM sodium orthovanidate, per well. The assay components were incubated for 2 hours to ensure equilibrium was attained. The assay was started by the addition of 300 pM [^35S]GTPγS per well and incubated for 60 minutes prior to centrifugation at 3000 rpm for 3 minutes and reading of a Packard TopCount.
Data were analysed using Activity Base (IDBS, UK) by fitting a four parameter logistic curve to generate IC50 values for each compound.

**Q.** Which Kb does the source give for CCOc1ccc(C(=O)Cn2c(=O)n(CCCC(=O)NC3CCCC3)c(=O)c3cc(Cl)ccc32)cc1Cl [Compound 3-4, 4-{6-Chloro-1-[2-(3-chloro-4-ethoxy-phenyl)-2-oxo-ethyl]-2,4-dioxo-1,4-dihydro-2H quinazolin-3-yl}-N-cyclopentyl-butyramide] here?
**A.** 4.8 nM

**Q.** For COc1cc(OC)c(NC(=O)Cn2c(=O)n(CC(=O)O)c(=O)c3ccccc32)cc1Cl [Example 1-1, {1-[(5-Chloro-2,4-dimethoxy-phenylcarbamoyl)-methyl]-2,4-dioxo-1,4-dihydro-2H-quinazolin-3-yl}-acetic acid], which Kb is on record?
**A.** 0.8 nM

**Q.** With COc1cc(OC)c(NC(=O)Cn2c(=O)n(CC(=O)NCCc3cccnc3)c(=O)c3ccccc32)cc1Cl [Example 1-13, N-(5-Chloro-2,4-dimethoxy-phenyl)-2-{2,4-dioxo-3-[(2-pyridin-3-yl-ethylcarbamoyl)-methyl]-3,4-dihydro-2H-quinazolin-1-yl}-acetamide] as the molecule, how does the Kb read?
**A.** 1.9 nM

**Q.** With COc1cc(OC)c(NC(=O)Cn2c(=O)n(-c3ccc(CC(=O)NCCc4ccccc4)cc3)c(=O)c3ccccc32)cc1Cl [Example 2-1, 2-(4-{1-[(5-Chloro-2,4-dimethoxy-phenylcarbamoyl)-methyl]-2,4-dioxo-1,4-dihydro-2H-quinazolin-3-yl}-phenyl)-N-phenethyl-acetamide] as the molecule, how does the Kb read?
**A.** 3.6 nM
